The test system of series [1] is HeLa cells. The series can be described thus: cell death-inducing activity. It counts as cell-based. The note with it: 50 μM, 24 hours. An excerpt:
(§1) Figure 1 Structures and characterization of KUSs, novel VCP modulators. (a) Structures and IC50 values of KUS11, KUS31, KUS69, KUS94, KUS121, and KUS187. […] (b) ATPase activity assays of recombinant human […], comparing KUSs and DBeQ. (c) Immunoblot analysis of ubiquitinated proteins, an ER stress marker (CHOP), and an autophagy indicator (LC3), comparing KUSs and DBeQ. As a control, MG132, a proteasome inhibitor, was used for the analysis. Actin served as a loading control. Complete scans of the different blots are presented in Supplementary Fig. 7. (d) Comparison of KUSs and DBeQ for cell death-inducing activities. HeLa cells were treated with 50 μM DBeQ or KUSs for 24 hours. […]

Series [2] relates to rd10 mice. Kind of series: rd10 mouse model of retinitis pigmentosa (SD-OCT, electroretinogram, histology, electron microscopy, western blot). It counts as in vivo. As to conditions: 21-day-old. As to the method: Starting 7 days after birth, KUS121 or KUS187 was administered daily (50 mg/kg) by intraperitoneal injection. […] To test the visual function of the mice, dark-adapted electroretinograms were recorded. The amplitude of the a-wave, which represents visual function of photoreceptors, was smaller in the control mice than in the KUS-treated mice (Supplementary Fig. 5b and c). The peak latency of the a-wave, which negatively correlates with visual function of photoreceptors, was delayed in the control mice as compared with the KUS-treated mice (Supplementary Fig. 5d). At age 25 days, the thinning of the outer nuclear layer (ONL) was clearly observed in the control mice (Fig. 5a). The outer nuclear layer and the junction line between the inner segment and outer segment (arrow heads in Fig. 5a), which is generally considered to be positively associated with visual function, were clearly detected in the KUS-treated but not in control mice. […] At age 29 days, the photoreceptor layer was barely detected in SD-OCT images, and electroretinogram records were almost flat in control mice. […]
Spectral-domain optical coherence tomography (SD-OCT) examinations using Multiline OCT (Heidelberg Engineering, Heidelberg, Germany) were performed[33] in rd10 mice at ages of 21, 25, 29, and 33days. Total retinal thickness (from inner limiting membrane to Bruch membrane) in rd10 mice was measured using volume scan images[33] within a circle 0.366 mm in diameter, the center of which was adjusted to the center of the optic nerve head. […]
Electroretinogram recording was performed to assess the visual function of rd10 mice at ages of 21, 25, 29, and 33 days. […] Electroretinograms were recorded using a gold loop corneal electrode with a light-emitting diode (Mayo Corp., Inazawa, Japan). […] The electroretinogram response signals were amplified, digitized at 10 kHz with a band-pass filter of 0.3 to 500 Hz, and analyzed (PowerLab 2/25; AD instruments, New South Wales, Australia). […]
(Immunoblotting shows a protein as a band on a membrane.)

In series [3] the test system is essentially all tested cultured cells. The series can be described thus: cellular toxicity on cultured cells. It counts as cell-based. As to conditions: up to 50 μM.
Series [4] has as its system whole cell soluble lysate of neuronally differentiated PC12 cells. The series can be described thus: total ATPase activity in clarified whole cell lysates. It counts as biochemical. As to the method:
Figure 3 Effects of KUSs on ATPase activities, ATP levels, and acetyl-CoA levels. (a) Inhibition of ATPase activity in clarified whole cell lysates by KUS121, KUS187, and KUS94, but not KUS11. Total ATPase activities in clarified whole cell lysates from differentiated PC12 cells were measured in the absence and presence of KUSs. Relative ATPase activities are shown with values in the absence of KUS (D: DMSO) set at 100%. (b) HeLa cells were cultured in medium with low glucose (0.25 g/l) for 20 hours, with or without KUSs, and ATP levels were measured with luciferase assays. (c) HeLa cells were cultured in medium with low glucose (0.25 g/l) for 20 hours, with or without KUSs, and acetyl-CoA levels were measured. * P < 0.05, ** P < 0.01, *** P < 0.001 vs. DMSO control (Dunnett's test, n = 3).
(§2) We measured ATPase activities by modifying the molybdate assay, which was as described previously. In the assay, 1 μg of whole cell soluble lysate of neuronally differentiated PC12 cells, or 500 ng recombinant VCP protein, was incubated in 20 μl of the ATPase assay buffer (20 mM HEPES (pH 7.4), 50 mM KCl, 5 mM MgCl2) with 100 μM [γ-^32P]ATP (18.5 GBq/mmol) (PerkinElmer) at 37°C for 20 min. After incubation, the reaction was quenched by addition of 200 μl of 8% ice-cold trichloroacetic acid solution with 1 mM K2HPO4, and then 50 μl of solution A (3.75% ammonium molybdate, 0.02 M silicotungstic acid in 3 N H2SO4) and 300 μl of n-butyl acetate were added to the reaction. The samples were mixed well and centrifuged at 12,000 × g for 1 min. Then, 200 μl aliquots from the upper organic phases were taken and their radioactivity was determined with a liquid scintillation counter for β-radiation, which determined the amounts of ^32P released.

Series [5] relates to cellular VCP functions. Kind of series: immunoblot of ubiquitinated proteins, CHOP (ER stress) and LC3 (autophagy) in cultured cells. It counts as cell-based.
Source text: as §1

Series [6] has as its system HeLa cells. Kind of series: immunocytochemistry of laminin γ1 aggregation in tunicamycin-treated cells. It counts as cell-based. As to conditions: HeLa, Tm 0.5 μg/ml, 5 hours. As to the method: (§3) Figure 4 KUSs and ATP each prevented a decrease of ATP levels and ameliorated ER stress in tunicamycin-treated cells. (a) Immunocytochemical analyses of HeLa cells by an anti-laminin γ1 antibody. HeLa cells were treated with 0.5 μg/ml of tunicamycin (Tm) for 5 hours in the presence of KUSs (50 μM), ATP (0.1, 0.3, and 1 mM), methylpyruvate (MePyr) (3 and 10 mM), or vehicle alone (DMSO). Then, cells were fixed and subjected to immunocytochemical analyses. Normally growing HeLa cells were also analyzed (Control). Scale bar, 10 μm. (b) Measurements of the relative amounts of ATP per cell. HeLa cells were treated with tunicamycin (Tm, 0.5 μg/ml) for 24 hours in the presence of KUSs (50 μM) or ATP (0.1 and 1 mM), or vehicle alone (DMSO), and were harvested. Then, ATP amounts from 1.5 × 10^5 cells were measured. * P < 0.05, ** P < 0.01. Error bars indicate SD. (c) Western blot analyses on CHOP. HeLa cells were treated with 0.5 μg/ml of tunicamycin for 5 hours in the presence of KUSs (50 μM), ATP (0.1, 0.3, and 1 mM), methylpyruvate (MePyr) (3 and 10 mM), or vehicle alone (-). Then, cells were harvested and subjected to western blot analyses. Actin served as a loading control. Complete scans of the different blots are presented in Supplementary Fig. 9.

Series [7] addresses recombinant VCP (Homo sapiens, UniProt P55072). Kind of series: ATPase activity of recombinant VCP in vitro (modified molybdate assay, [γ-32P]ATP). It counts as biochemical. As to the method: as §2
Series [8] relates to HeLa cells. The series can be described thus: relative ATP amounts per cell in tunicamycin-treated cells. It counts as cell-based. As to conditions: Tm 0.5 μg/ml, 24 hours, KUSs 50 μM. As to the method: as §3
The subject of series [9] is tunicamycin-treated HeLa cells. Kind of series: western blot of ER stress markers and phospho-Akt in tunicamycin-treated cells. It counts as cell-based. As to conditions: Tm 0.5 μg/ml, 5 hours, 3 to 10 mM methylpyruvate. The procedure: Figure 2 Prevention of cell death and ER stress by KUSs. (a) Photographs of HeLa cells, cultured with DMSO (DMSO) or KUSs (KUS94, KUS121, and KUS187, 20 μM each) for 41 hours in low glucose (0.2 g/l) medium. Scale bar, 100 μm. (b–e) WST (water-soluble tetrazolium salts) values reflecting relative live cell numbers are shown, as optical density (OD) at 450 nm. Error bars indicate SD. (b) WST values of HeLa cells, cultured in low glucose (0.2 g/l) with DMSO (control) or KUSs (50 μM for KUS121; 20 μM for KUS69, KUS94, and KUS187, n = 3) for 41 hours. (c) Cell viability, indicated by WST values of HeLa cells, cultured with tunicamycin (Tm) (0.2 μg/ml) for 41 hours with KUSs (20 μM each, n = 3). (d) WST values of HEK293 cells, cultured under serum-free conditions for 65 hours with DMSO (control) or KUSs (20 μM each, n = 3). *** P < 0.001, vs. DMSO control (Dunnett's test). (e) WST values of HeLa cells, cultured in low glucose (0.2 g/l) medium with different concentrations of KUS121 (5, 10, 20, and 50 μM, n = 3) for 41 hours. ** P = 0.008, *** P < 0.001, vs. DMSO control (Dunnett's test). […]
Figure 4 KUSs and ATP each prevented a decrease of ATP levels and ameliorated ER stress in tunicamycin-treated cells. […] Normally growing HeLa cells were also analyzed (Control). […] Then, ATP amounts from 1.5 × 10^5 cells were measured. * P < 0.05, ** P < 0.01. […]

The results in this text go back to paper PMC4122966, “Novel VCP modulators mitigate major pathologies of rd10, a mouse model of retinitis pigmentosa” (Scientific Reports, 2014).

Values joined by “and” are separate entries in the source; they are usually repeats but may differ in a detail not shown here. Equal entries are not always repeated.

Chain of recombinant VCP (P55072 whole entry, species assumed): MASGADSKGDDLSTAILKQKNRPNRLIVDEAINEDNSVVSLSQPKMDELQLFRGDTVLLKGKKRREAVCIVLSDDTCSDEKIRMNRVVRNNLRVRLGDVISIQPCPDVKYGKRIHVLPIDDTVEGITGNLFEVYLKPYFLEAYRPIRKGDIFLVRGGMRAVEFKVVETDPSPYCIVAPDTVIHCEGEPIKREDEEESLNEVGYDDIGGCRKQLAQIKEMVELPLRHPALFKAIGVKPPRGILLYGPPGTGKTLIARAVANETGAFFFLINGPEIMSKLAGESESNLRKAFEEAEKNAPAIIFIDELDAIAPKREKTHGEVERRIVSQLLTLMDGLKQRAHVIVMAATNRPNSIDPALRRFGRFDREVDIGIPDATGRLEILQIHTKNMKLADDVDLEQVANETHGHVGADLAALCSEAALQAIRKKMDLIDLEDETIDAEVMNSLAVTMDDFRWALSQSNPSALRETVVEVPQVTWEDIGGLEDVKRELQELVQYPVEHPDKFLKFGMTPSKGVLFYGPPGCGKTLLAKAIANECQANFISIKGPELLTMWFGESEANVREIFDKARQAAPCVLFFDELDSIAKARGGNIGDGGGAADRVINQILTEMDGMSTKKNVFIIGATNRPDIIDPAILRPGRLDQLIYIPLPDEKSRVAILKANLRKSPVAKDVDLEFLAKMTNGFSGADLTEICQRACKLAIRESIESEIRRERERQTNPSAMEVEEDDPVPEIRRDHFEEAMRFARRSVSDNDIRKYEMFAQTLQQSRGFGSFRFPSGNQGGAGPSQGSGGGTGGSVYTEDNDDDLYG

The IC50 is the midpoint of a concentration-inhibition curve. In the case of `CCCCOc1c(C=O)cc(C)cc1-c1ccc(/N=N/c2cc(S(=O)(=O)O)c3ccccc3c2N)cn1` [KUS187], the “induction of cell death” value in [1] is on record as “did not induce any of these phenotypes”. Moreover, in [2], the “outer segment morphology by electron microscopy” value is on record as “well preserved”. In addition, the “mean amplitude of the a-wave, dark-adapted electroretinogram” value in [2] (50 mg/kg daily i.p. from day 7, vs control) is reported as “larger than that in control rd10 mice”. For the same compound, the apparent cellular toxicity result in series [3] is “did not manifest any apparent cellular toxicity”. Further, the “lowering of total ATPase activity” value in [4] (100 nM compound) is recorded as “approximately 20%”; in series [4] (1 μM compound), approximately 40%. In addition, the “induction of accumulation of ubiquitinated proteins, ER stress (CHOP), autophagy (LC3)” value (“induction of accumulation … (LC3)” for short) in series [5] is “did not induce any of these phenotypes”. The “aggregation of laminin γ1” value in series [6] (50 μM KUS) is “clearly prevented the aggregation of laminin γ1”. For the same compound, the half-inhibitory concentration (IC50) in [7] is 200 to 300 nM and 186 nM.
Turning to `Nc1ccc2cc(S(=O)(=O)O)ccc2c1/N=N/c1ccccc1` [KUS11], the “decrease of ATP levels in tunicamycin-treated cells” value in [8] is on record as “unable to prevent the tunicamycin-elicited ATP decrease”. In addition, the “inhibition of total ATPase activity in clarified lysates” value in [4] is reported as “did not show any significant inhibition”. For the same compound, in series [7], the IC50 was more than 100000 nM.
For the compound `Nc1c(/N=N/c2ccc(-c3cccc4c3sc3ccccc34)nc2)cc(S(=O)(=O)O)c2ccccc12` [KUS94], the “induction of cell death” value in [1] is listed as “did not induce any of these phenotypes”. In series [3], the apparent cellular toxicity result was “did not manifest any apparent cellular toxicity”. The “lowering of total ATPase activity” value in [4] (1 μM compound) is “approximately 20%”. In addition, the “induction of accumulation … (LC3)” value in series [5] is listed as “did not induce any of these phenotypes”. Further, the “aggregation of laminin γ1” value in [6] (50 μM KUS) is on record as “clearly prevented the aggregation of laminin γ1”. Also, the IC50 in [7] stood at 1000 nM.
With `Nc1c(/N=N/c2ccc(-c3ccccc3)nc2)cc(S(=O)(=O)O)c2ccccc12` [KUS31], the “induction of cell death” value in series [1] is given as “did not induce any of these phenotypes”. The apparent cellular toxicity result in series [3] was “did not manifest any apparent cellular toxicity”. Further, the “induction of accumulation … (LC3)” value in series [5] is reported as “did not induce any of these phenotypes”. Besides, the half-maximal inhibitory concentration (IC50) in series [7] turned out to be 229 nM.
Turning to `Nc1c(/N=N/c2ccc(-c3ccccc3-c3ccccc3)nc2)cc(S(=O)(=O)O)c2ccccc12` [KUS69], the “induction of cell death” value in series [1] is “did not induce any of these phenotypes”. Besides, in series [3], the apparent cellular toxicity result is “did not manifest any apparent cellular toxicity”. The “induction of accumulation … (LC3)” value in series [5] is “did not induce any of these phenotypes”. In addition, in series [6] (50 μM KUS), the “aggregation of laminin γ1” value was “clearly prevented the aggregation of laminin γ1”. Further, in series [7], the IC50 was found to be 116 nM.
For `COC(=O)C(C)=O` [methylpyruvate], the “induction of ER stress (CHOP induction)” value in series [9] was “dampen the induction of ER stress”. Also, the “aggregation of laminin γ1” value in [6] (3 to 10 mM methylpyruvate) is “ineffective in preventing the aggregation of laminin γ1”.
